{
  "source": "patent US20200138966A1",
  "about": "“BIFUNCTIONAL SMALL PEPTIDE FOR AUTOIMMUNE DIABETES” (Board of Supervisors of Louisiana State University and …, priority 2017, published 2020)",
  "key": {"NOD/LtJ T cells": {"tested_on": "NOD/LtJ T cells", "conditions": "in conjunction with SDF-1α; cited from earlier work"}, "NOD mice": {"tested_on": "NOD mice", "conditions": "inhibition of CXCR4 activity; cited from earlier work"}, "NOD CD3 T cell": {"tested_on": "NOD CD3 T cell", "experiment": "CD3 T cell adhesion to TNF-α activated islet microvascular endothelial cells", "format": "cell-based, mouse", "conditions": "SDF-1α 50 ng/ml; NOD compared to NON or C57 T cells; FIG. 2"}, "human CD3 T cell": {"tested_on": "human CD3 T cell", "experiment": "Shear mediated CD3 T cell detachment from fresh frozen human pancreas tissue", "format": "cell-based", "conditions": "SDF-1α pretreatment, physiological shear stress", "excerpt": "FIG. 3 is a line graph showing non-diabetic human CD3 T cell shear mediated detachment from fresh frozen human pancreas tissue with or without SDF-1 pretreatment.\nFIG. 4 is a line graph showing T1D human CD3 T cell detachment from fresh frozen human pancreas tissue with or without SDF-1 pretreatment. 3 non-diabetic and 3 T1D subjects <1 yr diagnosis were used for T cell isolations. *p<0.01 w/o vs with SDF-1 treatment.\nSDF-1α stimulates diabetogenic T cell chemorepulsion: a novel mechanism for potential therapeutic intervention in T1D. Chemokines may be differentially expressed in T1D, which play a role in leukocyte infiltration and adhesion. SDF-1α plays a key role in leukocyte adhesion by activating leukocyte integrins to higher affinity state that promotes their clustering. Due to this effect, SDF-1α has been viewed as a universally potent chemoattractant for leukocyte recruitment at low nanomolar concentrations. However, the inventors discovered novel mechanisms of autoimmune T cell chemorepulsion responses in autoimmune NOD/LtJ diabetic mice and in human T1D T cells at SDF-1α concentrations ranging from 1-100 nM."}, "NOD/LtJ CD3 T cells": {"tested_on": "NOD/LtJ CD3 T cells", "experiment": "Hydrodynamic shear detachment assay of T cells off TNF-α activated islet endothelial cells", "format": "cell-based, mouse", "excerpt": "T cell Robo-1 expression governs SDF-1 mediated detachment: The inventors examined whether Robo-1 immuno-neutralization could affect SDF-1α mediated chemorepulsion of NOD/LtJ CD3 T cells. FIGS. 5-7 show results from hydrodynamic shear detachment assays of T cells off of TNF-α activated islet endothelial cells. FIG. 5 illustration indicates molecular events. FIGS. 6 and 7 illustrate the effect of Robo-1 antibody on T cell detachment at low and higher shear rates (1 and 2.5 dyne/cm^2, respectively)."}, "NOD/LtJ CD3 T cell": {"tested_on": "NOD/LtJ CD3 T cell", "experiment": "Shear mediated detachment from parallel plate flow chambers coated with recombinant Fc chimera ICAM-1 and VCAM-1", "format": "cell-based, mouse", "conditions": "SDF-1 (250 ng/ml) without Slit-2; FIG. 13", "procedure": "FIG. 13 is a bar graph showing NOD CD3 T cell shear detachment at 1 dyne/cm^2 to adhesion molecules with SDF-1 (250 ng/ml) ±Slit-2 (20 μg/ml). *p<0.05 between indicated comparisons.\nFIG. 14 is a bar graph showing NOD CD3 T cell shear detachment at 2.5 dyne/cm^2 to adhesion molecules with SDF-1 (250 ng/ml) ±Slit-2 (20 μg/ml). *p<0.05 between indicated comparisons.\nSlit-2 peptide stimulates SDF-1 mediated NOD/LtJ T cell detachment: The inventors next examined whether Slit2 engagement of NOD/LtJ T cell Robo-1 could facilitate SDF-1 mediated chemorepulsion. To study this in an unambiguous way, recombinant Fc chimera endothelial cell adhesion molecules ICAM-1 and VCAM-1 was used to coat the surface of parallel plate flow chambers with or without SDF-1α to precisely control the density and presentation of adhesion molecules and chemokine for adhesive interactions."}},
  "data": [
    {"compound": "LNSLVLYGN [LRR-9, Slit-2 peptide containing LRR domain]", "values": [
      {"measurement": "attachment of NOD/LtJ T cells from recombinant endothelial cell adhesion molecules", "setting": "NOD/LtJ T cells", "result": "can inhibit attachment"}
    ]},
    {"compound": "c1cc(CN2CCCNCCNCCCNCC2)ccc1CN1CCCNCCNCCCNCC1", "note": "[AMD3100]", "values": [
      {"measurement": "adoptive transfer of diabetes", "setting": "NOD mice", "result": "exacerbated adoptive transfer of diabetes"}
    ]},
    {"compound": "LRRIDLSNN [LRR-8, Slit-2 peptide containing LRR domain]", "values": [
      {"measurement": "attachment of NOD/LtJ T cells from recombinant endothelial cell adhesion molecules", "setting": "NOD/LtJ T cells", "result": "can inhibit attachment"}
    ]},
    {"compound": "LQLLLLNAN [LRR-10, Slit-2 peptide containing LRR domain]", "values": [
      {"measurement": "attachment of NOD/LtJ T cells from recombinant endothelial cell adhesion molecules", "setting": "NOD/LtJ T cells", "result": "can inhibit attachment"}
    ]},
    {"compound": "LNLLSLYDN [LRR-11, Slit-2 peptide containing LRR domain]", "values": [
      {"measurement": "attachment of NOD/LtJ T cells from recombinant endothelial cell adhesion molecules", "setting": "NOD/LtJ T cells", "result": "can inhibit attachment"}
    ]},
    {"compound": "TITEIRLEQN [LRR-7, Slit-2 peptide containing LRR domain]", "values": [
      {"measurement": "attachment of NOD/LtJ T cells from recombinant endothelial cell adhesion molecules", "setting": "NOD/LtJ T cells", "result": "can inhibit attachment"}
    ]},
    {"compound": "SDF-1α: chemokine, ligand of CXCR4, used to treat T cells or coat flow chambers (AYWKENKEQ)", "values": [
      {"measurement": "NOD CD3 T cell adhesion to TNF-α activated islet endothelial cells", "setting": "NOD CD3 T cell", "result": "selectively prevents NOD CD3 T cell adhesion"},
      {"measurement": "human T1D T cell detachment from fresh human pancreas tissue", "setting": "human CD3 T cell; T1D subjects, FIG. 4", "result": "selectively stimulated human T1D T cell detachment"},
      {"measurement": "T cell detachment of non-T1D subjects from fresh human pancreas tissue", "setting": "human CD3 T cell; non-diabetic subjects, FIG. 3", "result": "not T cell detachment of non-T1D subjects"},
      {"measurement": "NOD T cell shear detachment", "setting": "NOD/LtJ CD3 T cells; 1 dyne/cm^2, FIG. 6", "result": "stimulates NOD T cell shear detachment"},
      {"measurement": "NOD T cell shear detachment", "setting": "NOD/LtJ CD3 T cells; 2.5 dynes/cm^2, FIG. 7", "result": "stimulates NOD T cell shear detachment"},
      {"measurement": "NOD/LtJ CD3 T cell shear mediated detachment from ICAM-1 and VCAM-1", "setting": "NOD/LtJ CD3 T cell", "result": "even more resistant to shear detachment"}
    ]}
  ]
}
